Results taken from article PMC11855212 (2025).

What was measured:
[1] = test system: RB G4 (RB promoter G-quadruplex) (DNA, G4) CGGGGGGTTTTGGGCGGC; experiment: CD melting; conditions: 100 mM K+; 50 mM Tris-HCl, pH 7.4; 2 μM DNA; compound concentration not in material
[2] = test system: c-jun IM (DNA, i motif) TAACCCCCTCCCCCTCCCCCCTTTAAT; experiment: SPR; conditions: 100 mM K+; 20 mM MES, pH 5.5, 25 °C
[3] = test system: kras G4 (DNA, G4) AGGGCGGTGTGGGAAGAGGGAAGAGGGGGAGG; experiment: SPR; conditions: 100 mM K+; 50 mM Tris-HCl, pH 7.4, 25 °C
[4] = test system: RET G4 (DNA, G4) GGGGCGGGGCGGGGGGGGG; experiment: SPR; conditions: 100 mM K+; 50 mM Tris-HCl, pH 7.4, 25 °C
[5] = test system: RB promoter i-motif, 5'-FAM (DNA, i motif) GCCGCCCAAAACCCCCCG; experiment: MST; conditions: 100 mM K+; 20 mM MES, pH 5.5, 25 °C
[6] = test system: RB IM (RB promoter i-motif) (DNA, i motif) GCCGCCCAAAACCCCCCG; experiment: SPR; conditions: 100 mM K+; 20 mM MES, pH 5.5, 25 °C
[7] = test system: hairpin (DNA, hairpin) CGCGCGCGTTTTCGCGCGCG; experiment: SPR; conditions: 25 °C; highest concentration not stated
[8] = test system: RB promoter G-quadruplex, 5'-FAM (DNA, G4) CGGGGGGTTTTGGGCGGC; experiment: MST; conditions: 100 mM K+; 50 mM Tris-HCl, pH 7.4, 25 °C
[9] = test system: c-jun G4 (DNA, G4) AAGGGGGGAGGGGGAGGGGGTT; experiment: SPR; conditions: 100 mM K+; 50 mM Tris-HCl, pH 7.4, 25 °C
[10] = test system: RB IM (RB promoter i-motif) (DNA, i motif) GCCGCCCAAAACCCCCCG; experiment: CD melting; conditions: 100 mM K+; BPES buffer (pH 5.5 per i-motif experiments); 2 μM DNA; compound concentration not in material
[11] = test system: RB IM (RB promoter i-motif) (DNA, i motif) GCCGCCCAAAACCCCCCG; experiment: TO displacement fluorescence; conditions: 100 mM K+; BPES buffer, pH 5.5, 25 °C; 1 μM DNA; thiazole orange (TO) displaced
[12] = test system: ACC2 G4 (DNA, G4) GGGGCGGGGCGGGGGCGGG; experiment: SPR; conditions: 100 mM K+; 50 mM Tris-HCl, pH 7.4, 25 °C
[13] = test system: ACC2 IM (DNA, i motif) TGACCCGCCCCCGCCCCGCCCCTGT; experiment: SPR; conditions: 100 mM K+; 20 mM MES, pH 5.5, 25 °C
[14] = test system: RB G4 (RB promoter G-quadruplex) (DNA, G4) CGGGGGGTTTTGGGCGGC; experiment: TO displacement fluorescence; conditions: 100 mM K+; 50 mM Tris-HCl, pH 7.4, 25 °C; 1 μM DNA; thiazole orange (TO) displaced
[15] = test system: RB IM, 5'-biotin (SPR) (DNA, i motif) GCCGCCCAAAACCCCCCG; experiment: SPR; conditions: 100 mM K+, 20 mM MES, pH 5.5, 25 °C
[16] = test system: hairpin (DNA, hairpin) CGCGCGCGTTTTCGCGCGCG; experiment: SPR; conditions: buffer for hairpin not stated

For CN(CCCNc1c2ccccc2nc2ccccc12)CCCNc1c2ccccc2nc2ccccc12, which ΔTm [1] is on record?
Its ΔTm is −6.4 °C.

What about the KD [2] of the same compound?
Its KD is 27.0 µM.

What about the KD [3] of the same compound?
The KD was 32.5 µM.

What about the KD [4] of the same compound?
Its KD is 30.9 µM.

And the KD [5]?
Its KD is 0.43 ± 0.24 µM.

What about the KD [6] of the same compound?
The KD was 2.44 µM.

And the KD [7]?
Its KD is over 50 µM.

What about the KD [8] of the same compound?
Its KD is 2.50 ± 0.65 µM.

What about the KD [9] of the same compound?
The KD was 43.9 µM.

What about the ΔTm [10] of the same compound?
The ΔTm was −10.7 °C.

What about the DC50 [11] of the same compound?
The DC50 was 3.4 µM.

And the KD [12]?
Its KD is 53.1 µM.

And the KD [13]?
Its KD is 41.7 µM.

What about the DC50 [14] of the same compound?
The DC50 was 2.7 µM.

How did the KD [6] turn out when C[n+]1c(/C=C/c2c3ccccc3cc3ccccc23)ccc2ccccc21 was run?
The KD was 36.7 µM.

And the KD ([15]; unit not printed in Table S2, μM in text)?
The KD was 36.7 µM.

Cc1ccc2nc3ccccc3c(NCCNCCNc3c4ccccc4nc4ccc(C)cc34)c2c1 was tested. Which ΔTm [1] did it give?
The ΔTm was −9.9 °C.

What about the KD [5] of the same compound?
Its KD is 18.06 ± 5.28 µM.

What about the KD [8] of the same compound?
Its KD is 0.50 ± 0.27 µM.

What about the KD ([15]; Table S2 prints 9.24) of the same compound?
The KD was 13.6 µM.

What about the KD [16] of the same compound?
The KD was over 50 µM.
